{"source": "patent US20250223259A1", "about": "“PROTEASE INHIBITORS FOR TREATING OR PREVENTING CORONAVIRUS INFECTION” (Merck Sharp & Dohme LLC, priority 2022, published 2025)", "data": [{"target": "SARS2 coronavirus 3CL protease (Severe acute respiratory syndrome coronavirus 2 (2019-nCoV) (SARS-CoV-2), UniProt P0DTD1)", "assay": "SARS2 Coronavirus 3CL Protease Assay (FRET)", "format": "biochemical", "settings": "SARS2 3CLPro FRET assay; 5 nM enzyme, 30 min pre-incubation with compound, 15 uM peptide substrate, 4 h room temperature", "units": {"IC50": "nM"}, "method": "The enzymatic activity of SARS2 coronavirus 3CL protease was determined in a FRET (fluorescence resonance energy transfer)-based assay measuring the cleavage of a peptide substrate by recombinantly expressed and purified enzyme. Cleavage of the peptide SEQ ID NO:1 (CPC Scientific) by SARS2 3CL protease was measured in reaction buffer (50 mM Hepes pH 7.5, 0.01% Triton X-100, 0.01% BSA, 2 mM DTT). SARS2 3CL protease (5 nM final concentration) was pre-incubated with compound for 30 minutes before reaction initiation with peptide substrate (15 uM final concentration). Room temperature reactions (4 h) were quenched by addition of a high dose of inhibitor and read on an appropriate plate reader (excitation wavelength=495 nm, emission wavelength=520 nm). Data were analyzed by a standard 4 parameter fit to determine IC50 values.", "values": [{"smiles": "COC(=O)N[C@@H](C)C(=O)N1CC2(CCCCC2)C[C@H]1C(=O)N[C@@H](CCC(C)(F)F)C(=O)C(=O)NC1CC1", "note": "[Example 14, Methyl ((S)-1-((S)-3-(((S)-1-(cyclopropylamino)-6,6-difluoro-1,2-dioxoheptan-3-yl)carbamoyl)-2-azaspiro[4.5]decan-2-yl)-1-oxopropan-2-yl)carbamate]", "IC50": 69}, {"smiles": "CNC(=O)C(=O)[C@H](CCC(C)(F)F)NC(=O)[C@@H]1C[C@@H](C(F)(F)F)CN1C(=O)[C@@H](NC(=O)OC)C(C)(C)C", "note": "[Example 27, Methyl ((S)-1-((2S,4R)-2-(((S)-6,6-difluoro-1-(methylamino)-1,2-dioxoheptan-3-yl)carbamoyl)-4-(trifluoromethyl)pyrrolidin-1-yl)-3,3-dimethyl-1-oxobutan-2-yl)carbamate]", "IC50": 14}, {"smiles": "CNC(=O)C(=O)[C@H](CCC(C)(F)F)NC(=O)[C@@H]1[C@H]2CC(C)(C)O[C@H]2CN1C(=O)[C@@H](NC(=O)OC)C(C)(C)C", "note": "[Example 86, methyl ((S)-1-((3aR,4S,6aR)-4-(((S)-6,6-difluoro-1-(methylamino)-1,2-dioxoheptan-3-yl)carbamoyl)-2,2-dimethylhexahydro-5H-furo[2,3-c]pyrrol-5-yl)-3,3-dimethyl-1-oxobutan-2-yl)carbamate]", "IC50": 20}, {"smiles": "COC(=O)N[C@H](C(=O)N1CC2(CCCCC2)C[C@H]1C(=O)N[C@@H](CCC(C)(F)F)C(=O)C(N)=O)C(C)(C)C", "note": "[Example 78, Methyl ((S)-1-((S)-3-(((S)-1-amino-6,6-difluoro-1,2-dioxoheptan-3-yl)carbamoyl)-2-azaspiro[4.5]decan-2-yl)-3,3-dimethyl-1-oxobutan-2-yl)carbamate]", "IC50": 12}, {"smiles": "CNC(=O)C(=O)[C@H](CCC(C)(F)F)NC(=O)[C@@H]1[C@@H]2CC[C@@H](C2)CN1C(=O)[C@@H](NC(=O)OC)C(C)(C)C", "note": "[Example 89, methyl ((S)-1-((1R,2S,5S)-2-(((S)-6,6-difluoro-1-(methylamino)-1,2-dioxoheptan-3-yl)carbamoyl)-3-azabicyclo[3.2.1]octan-3-yl)-3,3-dimethyl-1-oxobutan-2-yl)carbamate]", "IC50": 13}, {"smiles": "CNC(=O)C(=O)[C@H](CCC(C)(F)F)NC(=O)C1CC2(CCC2)CN1C(=O)[C@@H](NC(=O)OC)C(C)(C)C", "note": "(single isomer, unassigned) [Example 44, Methyl ((S)-1-((R or S)-7-(((S)-6,6-difluoro-1-(methylamino)-1,2-dioxoheptan-3-yl)carbamoyl)-6-azaspiro[3.4]octan-6-yl)-3,3-dimethyl-1-oxobutan-2-yl)carbamate]", "IC50": 27}, {"smiles": "COC(=O)N[C@H](C(=O)N1CC(F)(F)CC[C@H]1C(=O)N[C@@H](CCC(C)(F)F)C(=O)C(=O)NC1CC1)C(C)(C)C", "note": "[Example 104, methyl ((S)-1-((S)-2-(((S)-1-(cyclopropylamino)-6,6-difluoro-1,2-dioxoheptan-3-yl)carbamoyl)-5,5-difluoropiperidin-1-yl)-3,3-dimethyl-1-oxobutan-2-yl)carbamate]", "IC50": 740}, {"smiles": "CNC(=O)C(=O)[C@H](CCC(C)(F)F)NC(=O)[C@@H]1[C@H]2CCC[C@H]2CN1C(=O)[C@@H](NC(=O)OCC(F)F)C(C)(C)C", "note": "[Example 121, 2,2-difluoroethyl ((S)-1-((1S,3aR,6aS)-1-(((S)-6,6-difluoro-1-(methylamino)-1,2-dioxoheptan-3-yl)carbamoyl)hexahydrocyclopenta[c]pyrrol-2(1H)-yl)-3,3-dimethyl-1-oxobutan-2-yl)carbamate]", "IC50": 15}, {"smiles": "CNC(=O)C(=O)[C@H](CCC(C)(F)F)NC(=O)[C@@H]1C[C@H](C(F)(F)F)CCN1C(=O)[C@@H](NC(=O)OC)C(C)(C)C", "note": "[Example 22, Methyl ((S)-1-((2S,4R)-2-(((S)-6,6-difluoro-1-(methylamino)-1,2-dioxoheptan-3-yl)carbamoyl)-4-(trifluoromethyl)piperidin-1-yl)-3,3-dimethyl-1-oxobutan-2-yl)carbamate]", "IC50": 10}, {"smiles": "COC(=O)N[C@H](C(=O)N1CC2CCC2C1C(=O)N[C@@H](CCC(C)(F)F)C(=O)C(=O)NC1CC1)C(C)(C)C", "note": "(single isomer, unassigned) [Example 43, Methyl ((S)-1-((1(R or S), 2(R or S),5(R or S))-(2-(((S)-1-(cyclopropylamino)-6,6-difluoro-1,2-dioxoheptan-3-yl)carbamoyl)-3-azabicyclo[3.2.0]heptan-3-yl)-3,3-dimethyl-1-oxobutan-2-yl)carbamate]", "IC50": 22}, {"smiles": "COC(=O)N[C@H](C(=O)N1C[C@H]2[C@@H]([C@H]1C(=O)N[C@@H](CCC(C)(F)F)C(=O)C(=O)NC1CC1)C(C)(C)C2(C)C)C(C)(C)C", "note": "[Example 36, Methyl ((S)-1-((1R,2S,5S)-2-(((S)-1-(cyclopropylamino)-6,6-difluoro-1,2-dioxoheptan-3-yl)carbamoyl)-6,6,7,7-tetramethyl-3-azabicyclo[3.2.0]heptan-3-yl)-3,3-dimethyl-1-oxobutan-2-yl)carbamate]", "IC50": 8.2}, {"smiles": "COC(=O)N[C@H](C(=O)N1CCC(OC(F)(F)F)CC1C(=O)N[C@@H](CCC(C)(F)F)C(=O)C(=O)NC1CC1)C(C)(C)C", "note": "(single isomer, unassigned) [Example 112, methyl ((S)-1-((2S,4S or 2R,4R)-2-(((S)-1-(cyclopropylamino)-6,6-difluoro-1,2-dioxoheptan-3-yl)carbamoyl)-4-(trifluoromethoxy)piperidin-1-yl)-3,3-dimethyl-1-oxobutan-2-yl)carbamate]", "IC50": 146}, {"smiles": "COC(=O)N[C@H](C(=O)N1CC(C2CCCC2)C[C@H]1C(=O)N[C@@H](CCC(C)(F)F)C(=O)C(=O)NC1CC1)C(C)(C)C", "note": "(single isomer, unassigned) [Example 3, Methyl ((S)-1-((2S,4(R or S))-4-cyclopentyl-2-(((S)-1-(cyclopropylamino)-6,6-difluoro-1,2-dioxoheptan-3-yl)carbamoyl)pyrrolidin-1-yl)-3,3-dimethyl-1-oxobutan-2-yl)carbamate]", "IC50": 58}, {"smiles": "COC(=O)N[C@H](C(=O)N1CCCC(C2CC2)C1C(=O)N[C@@H](CCC(C)(F)F)C(=O)C(=O)NC1CC1)C(C)(C)C", "note": "(single isomer, unassigned) [Example 90, methyl ((S)-1-((2S,3R or 2R,3S)-3-cyclopropyl-2-(((S)-1-(cyclopropylamino)-6,6-difluoro-1,2-dioxoheptan-3-yl)carbamoyl)piperidin-1-yl)-3,3-dimethyl-1-oxobutan-2-yl)carbamate]", "IC50": 16}, {"smiles": "CNC(=O)C(=O)[C@H](CCC(C)(F)F)NC(=O)[C@@H]1[C@H]2CCC[C@H]2CN1C(=O)[C@@H](NC(=O)OC)C12CC(C(F)(F)F)(C1)C2", "note": "[Example 114, methyl ((S)-2-((1S,3aR,6aS)-1-(((S)-6,6-difluoro-1-(methylamino)-1,2-dioxoheptan-3-yl)carbamoyl)hexahydrocyclopenta[c]pyrrol-2(1H)-yl)-2-oxo-1-(3-(trifluoromethyl)bicyclo[1.1 1]pentan-1-yl)ethyl)carbamate]", "IC50": 27}, {"smiles": "COC(=O)N[C@H](C(=O)N1C[C@@H]2CCC[C@@H]2[C@H]1C(=O)N[C@@H](CCC(C)(F)F)C(=O)C(=O)NC1CC1)C(C)(C)C", "note": "[Example 31, Methyl ((S)-1-((1S,3aR,6aS)-1-(((S)-1-(cyclopropylamino)-6,6-difluoro-1,2-dioxoheptan-3-yl)carbamoyl)hexahydrocyclo-penta[c]pyrrol-2(1H)-yl)-3,3-dimethyl-1-oxobutan-2-yl)carbamate]", "IC50": 10}, {"smiles": "COC(=O)N[C@H](C(=O)N1C[C@H]2[C@@H]([C@H]1C(=O)N[C@@H](CCC(C)(F)F)C(=O)C(N)=O)C(C)(C)C2(C)C)C(C)(C)C", "note": "[Example 42, Methyl ((S)-1-((1R,2S,5S)-2-(((S)-1-amino-6,6-difluoro-1,2-dioxoheptan-3-yl)carbamoyl)-6,6,7,7-tetramethyl-3-azabicyclo[3.2.0]heptan-3-yl)-3,3-dimethyl-1-oxobutan-2-yl)carbamate]", "IC50": 22}, {"smiles": "CNC(=O)C(=O)[C@H](CCC(C)(F)F)NC(=O)[C@@H]1[C@@H]2[C@H](CN1C(=O)[C@@H](NC(=O)OC)C(C)(C)C)C2(C)C", "note": "[Example 39, Methyl ((S)-1-((1R,2S,5S)-2-(((S)-6,6-difluoro-1-(methylamino)-1,2-dioxoheptan-3-yl)carbamoyl)-6,6-dimethyl-3-azabicyclo[3.1.0]hexan-3-yl)-3,3-dimethyl-1-oxobutan-2-yl)carbamate]", "IC50": 12}]}]}
